Among the data in patent US20240376123A1, “KRAS G12D INHIBITORS AND USES THEREOF” (SUZHOU ZANRONG PHARMA LIMITED, priority 2021, published 2024) are IC50 values, retold here.

The assay has as its system p-ERK in PNAC-1/HPAC cell. As to the kind of experiment: Phospho-ERK 1/2 assay (Table 1). It counts as cell-based. The note with it: Homo sapiens; PNAC-1/HPAC cell, 3 hours compound incubation; read-out: p-ERK IC50. How it is done:
Allow PNAC-1/HPAC cell growth in a T75 flask in DMEM and 10% 1 fetal calf serum (FCS; Gibco), using standard tissue culture procedures until ˜80% confluency is achieved. Day 1, seed 6000 cells/well in 384 well plate and incubate at 37° C., 5% CO2. Add diluted compound by Echo 550, final DMSO is 0.5%, incubate cells at 37° C., 5% CO2 for 3 hours. Then, remove medium and fix cells with 3.7% formaldehyde in PBS (PFA) by Apricot. Wash with PBS once. Permeabilize cells with cold 100% methanol and repeat wash once with PBS once. Add Li-Cor blocking buffer to each well and incubate 1.5 hours at RT. Remove blocking buffer and add primary antibody mixture (rabbit anti pERK, mouse anti GAPDH). Incubate at 4° C. overnight. Day 2, wash with PBST (Tween-20 in PBS) with total 3 times and then add secondary antibody mixture (goat anti rabbit 800CW (1:800 dilution in the combined solution) and goat anti mouse 680RD (1:800 dilution in the combined solution)), incubate for 60 minutes at RT away from light. Repeat washing with PBST 3 times. After final wash, centrifuge plate up-side-down at 1000 rpm to remove wash solution completely from wells. Before plate scanning, clean the bottom plate surface and the Odyssey* Imager scanning bed (if applicable) with moist, lint-free tissue to avoid any obstructions during scanning. Scan plate with detection in both 700 and 800 nm channels.

pIC50: −log10 of the molar value.

`C#Cc1c(F)ccc2cccc(-c3nc4c5c(nc(OC[C@@]67CCCN6C[C@H](F)C7)nc5c3F)N3CC5CCC(N5)C3CO4)c12` (stereo partly drawn) [Compound 8, (6R,9S)-2-(8-ethynyl-7-fluoronaphthalen-1-yl)-1-fluoro-12-(((2R,7aS)-2-fluorotetrahydro-1H-pyrrolizin-7a(5H)-yl)methoxy)-5a,6,7,8,9,10-hexahydro-5H-4-oxa-3,10a,11,13,14-pentaaza-6,9-methanonaphtho[1,8-ab]heptalene]: the pIC50 was 8.05.

Take `Fc1ccc2cccc(-c3nc4c5c(nc(OC[C@@]67CCCN6C[C@H](F)C7)nc5c3F)N3C[C@@H]5CC[C@@H](N5)C3CO4)c2c1Cl` (stereo partly drawn) [Compound 11, (6R,9S)-2-(8-chloro-7-fluoronaphthalen-1-yl)-1-fluoro-12-(((2R,7aS)-2-fluorotetrahydro-1H-pyrrolizin-7a(5H)-yl)methoxy)-5a,6,7,8,9,10-hexahydro-5H-4-oxa-3,10a,11,13,14-pentaaza-6,9-methanonaphtho[1,8-ab]heptalene]: the pIC50 is 7.28.

As for `Fc1c(-c2cccc3cccc(Cl)c23)nc2c3c(nc(OC[C@@]45CCCN4C[C@H](F)C5)nc13)N1C[C@@H]3CC[C@@H](N3)C1CO2` (stereo partly drawn) [Compound 12, (6R,9S)-2-(8-chloronaphthalen-1-yl)-1-fluoro-12-(((2R,7aS)-2-fluorotetrahydro-1H-pyrrolizin-7a(5H)-yl)methoxy)-5a,6,7,8,9,10-hexahydro-5H-4-oxa-3,10a,11,13,14-pentaaza-6,9-methanonaphtho[1,8-ab]heptalene], the pIC50 was 7.17.

In the case of `Cc1c(F)ccc2cccc(-c3nc4c5c(nc(OC[C@@]67CCCN6C[C@H](F)C7)nc5c3F)N3C[C@@H]5CC[C@@H](N5)C3CO4)c12` (stereo partly drawn) [Compound 13, (6R,9S)-1-fluoro-2-(7-fluoro-8-methylnaphthalen-1-yl)-12-(((2R,7aS)-2-fluorotetrahydro-1H-pyrrolizin-7a(5H)-yl)methoxy)-5a,6,7,8,9,10-hexahydro-5H-4-oxa-3,10a,11,13,14-pentaaza-6,9-methanonaphtho[1,8-ab]heptalene], the pIC50 was 6.63.

On to `Fc1ccc2cccc(-c3nc4c5c(nc(OC[C@@]67CCCN6C[C@H](F)C7)nc5c3F)N3C[C@@H]5CC[C@@H](N5)C3CO4)c2c1F` (stereo partly drawn) [Compound 14, (6R,9S)-2-(7,8-difluoronaphthalen-1-yl)-1-fluoro-12-(((2R,7aS)-2-fluorotetrahydro-1H-pyrrolizin-7a(5H)-yl)methoxy)-5a,6,7,8,9,10-hexahydro-5H-4-oxa-3,10a,11,13,14-pentaaza-6,9-methanonaphtho[1,8-ab]heptalene], for which the pIC50 was 6.85.

Regarding `Fc1c(-c2cccc3cccc(F)c23)nc2c3c(nc(OC[C@@]45CCCN4C[C@H](F)C5)nc13)N1C[C@@H]3CC[C@@H](N3)C1CO2` (stereo partly drawn) [Compound 15, (6R,9S)-1-fluoro-2-(8-fluoronaphthalen-1-yl)-12-(((2R,7aS)-2-fluorotetrahydro-1H-pyrrolizin-7a(5H)-yl)methoxy)-5a,6,7,8,9,10-hexahydro-5H-4-oxa-3,10a,11,13,14-pentaaza-6,9-methanonaphtho[1,8-ab]heptalene], the negative-log IC50 (pIC50) was 6.66.

As to `Fc1ccc2cccc(-c3nc4c5c(nc(OC[C@@]67CCCN6C[C@H](F)C7)nc5c3F)N3C[C@@H]5CC[C@@H](N5)C3CO4)c2c1` (stereo partly drawn) [Compound 16, (6R,9S)-1-fluoro-2-(7-fluoronaphthalen-1-yl)-12-(((2R,7aS)-2-fluorotetrahydro-1H-pyrrolizin-7a(5H)-yl)methoxy)-5a,6,7,8,9,10-hexahydro-5H-4-oxa-3,10a,11,13,14-pentaaza-6,9-methanonaphtho[1,8-ab]heptalene], the pIC50 is 6.45.

Turning to `COc1ccc2cccc(-c3nc4c5c(nc(OC[C@@]67CCCN6C[C@H](F)C7)nc5c3F)N3C[C@@H]5CC[C@@H](N5)C3CO4)c2c1` (stereo partly drawn) [Compound 17, (6R,9S)-1-fluoro-12-(((2R,7As)-2-fluorotetrahydro-1H-pyrrolizin-7a(5H)-yl)methoxy)-2-(7-methoxynaphthalen-1-yl)-5a,6,7,8,9,10-hexahydro-5H-4-oxa-3,10a,11,13,14-pentaaza-6,9-methanonaphtho[1,8-ab]heptalene], the pIC50 is 6.00.

Consider `Fc1cc2cccc(F)c2c(-c2nc3c4c(nc(OC[C@@]56CCCN5C[C@H](F)C6)nc4c2F)N2C[C@@H]4CC[C@@H](N4)C2CO3)n1` (stereo partly drawn) [Compound 18, (6R,9S)-2-(3,8-difluoroisoquinolin-1-yl)-1-fluoro-12-(((2R,7aS)-2-fluorotetrahydro-1H-pyrrolizin-7a(5H)-yl)methoxy)-5a,6,7,8,9,10-hexahydro-5H-4-oxa-3,10a,11,13,14-pentaaza-6,9-methanonaphtho[1,8-ab]heptalene], for which the pIC50 was 6.39.

On to `C#Cc1cccc2cccc(-c3nc4c5c(nc(OC[C@@]67CCCN6C[C@H](F)C7)nc5c3F)N3C[C@@H]5CC[C@@H](N5)C3CO4)c12` (stereo partly drawn) [Compound 19, (6R,9S)-2-(8-ethynylnaphthalen-1-yl)-1-fluoro-12-(((2R,7aS)-2-fluorotetrahydro-1H-pyrrolizin-7a(5H)-yl)methoxy)-5a,6,7,8,9,10-hexahydro-5H-4-oxa-3,10a,11,13,14-pentaaza-6,9-methanonaphtho[1,8-ab]heptalene], for which the pIC50 was 7.54.

Consider `N#Cc1cccc2cccc(-c3nc4c5c(nc(OC[C@@]67CCCN6C[C@H](F)C7)nc5c3F)N3C[C@@H]5CC[C@@H](N5)C3CO4)c12` (stereo partly drawn) [Compound 20, 8-((6R,9S)-1-fluoro-12-(((2R,7aS)-2-fluorotetrahydro-1H-pyrrolizin-7a(5H)-yl)methoxy)-5a,6,7,8,9,10-hexahydro-5H-4-oxa-3,10a,11,13,14-pentaaza-6,9-methanonaphtho[1,8-ab]heptalen-2-yl)-1-naphthonitrile], for which the negative logarithm of the IC50 (pIC50) was 6.13.

For the molecule `Fc1cccc(-c2nc3c4c(nc(OC[C@@]56CCCN5C[C@H](F)C6)nc4c2F)N2C[C@@H]4CC[C@@H](N4)C2CO3)c1C1CC1` (stereo partly drawn) [Compound 21, (6R,9S)-2-(2-cyclopropyl-3-fluorophenyl)-1-fluoro-12-(((2R,7aS)-2-fluorotetrahydro-1H-pyrrolizin-7a(5H)-yl)methoxy)-5a,6,7,8,9,10-hexahydro-5H-4-oxa-3,10a,11,13,14-pentaaza-6,9-methanonaphtho[1,8-ab]heptalene], the negative logarithm of the IC50 (pIC50) is 5.91.

Take `N#Cc1c(N)sc2cccc(-c3nc4c5c(nc(OC[C@@]67CCCN6C[C@H](F)C7)nc5c3F)N3C[C@@H]5CC[C@@H](N5)C3CO4)c12` (stereo partly drawn) [Compound 22, 2-amino-4-((6R,9S)-1-fluoro-12-(((2R,7aS)-2-fluorotetrahydro-1H-pyrrolizin-7a(5H)-yl)methoxy)-5a,6,7,8,9,10-hexahydro-5H-4-oxa-3,10a,11,13,14-pentaaza-6,9-methanonaphtho[1,8-ab]heptalen-2-yl)benzo[b]thiophene-3-carbonitrile]: the pIC50 was 6.31.

Consider `Fc1c(-c2cccc(Cl)c2C2CC2)nc2c3c(nc(OC[C@@]45CCCN4C[C@H](F)C5)nc13)N1C[C@@H]3CC[C@@H](N3)C1CO2` (stereo partly drawn) [Compound 23, (6R,9S)-2-(3-chloro-2-cyclopropylphenyl)-1-fluoro-12-(((2R,7aS)-2-fluorotetrahydro-1H-pyrrolizin-7a(5H)-yl)methoxy)-5a,6,7,8,9,10-hexahydro-5H-4-oxa-3,10a,11,13,14-pentaaza-6,9-methanonaphtho[1,8-ab]heptalene], for which the pIC50 was 6.43.

Turning to `CC(=O)c1cccc2cc(O)cc(-c3nc4c5c(nc(OC[C@@]67CCCN6C[C@H](F)C7)nc5c3F)N3C[C@H]5CC[C@H](N5)[C@H]3CO4)c12` [Compound 26, 1-(8-((5aS,6S,9R)-1-fluoro-12-(((2R,7aS)-2-fluorotetrahydro-1H-pyrrolizin-7a(5H)-yl)methoxy)-5a,6,7,8,9,10-hexahydro-5H-4-oxa-3,10a,11,13,14-pentaaza-6,9-methanonaphtho[1,8-ab]heptalen-2-yl)-6-hydroxynaphthalen-1-yl) ethan-1-one], the pIC50 is 6.83.

Regarding `Oc1cc(-c2nc3c4c(nc(OC[C@@]56CCCN5C[C@H](F)C6)nc4c2F)N2C[C@H]4CC[C@H](N4)[C@H]2CO3)c2c(Cl)cccc2c1` [Compound 27, 5-chloro-4-((5aS,6S,9R)-1-fluoro-12-(((2R,7aS)-2-fluorotetrahydro-1H-pyrrolizin-7a(5H)-yl)methoxy)-5a,6,7,8,9,10-hexahydro-5H-4-oxa-3,10a,11,13,14-pentaaza-6,9-methanonaphtho[1,8-ab]heptalen-2-yl)naphthalen-2-ol], the pIC50 was 8.30.

Consider `Oc1cc(-c2nc3c4c(nc(OC[C@@]56CCCN5C[C@H](F)C6)nc4c2F)N2C[C@H]4CC[C@H](N4)[C@H]2CO3)c2cc(F)ccc2c1` [Compound 30, 6-fluoro-4-((5aS,6S,9R)-1-fluoro-12-(((2R,7aS)-2-fluorotetrahydro-1H-pyrrolizin-7a(5H)-yl)methoxy)-5a,6,7,8,9,10-hexahydro-5H-4-oxa-3,10a,11,13,14-pentaaza-6,9-methanonaphtho[1,8-ab]heptalen-2-yl)naphthalen-2-ol], for which the pIC50 is 7.77.

For the molecule `C#Cc1cccc2cc(O)cc(-c3nc4c5c(nc(OC[C@@]67CCCN6C[C@H](F)C7)nc5c3F)N3C[C@H]5CC[C@H](N5)[C@H]3CO4)c12` [Compound 31, 5-ethynyl-4-((5aS,6S,9R)-1-fluoro-12-(((2R,7aS)-2-fluorotetrahydro-1H-pyrrolizin-7a(5H)-yl)methoxy)-5a,6,7,8,9,10-hexahydro-5H-4-oxa-3,10a,11,13,14-pentaaza-6,9-methanonaphtho[1,8-ab]heptalen-2-yl)naphthalen-2-ol], the negative-log IC50 (pIC50) is 8.10.

Usually pIC50 stands for −log10 of the IC50, conventionally taken in molar units.
